Here are results for 44 compounds from patent US8129527B2, “Analogs of dehydrophenylahistins and their therapeutic use” (Nereus Pharmacuticals, Inc., priority 2006, dated 2012).

SMILES strings stand for the structures. Bounds are passed on as bounds.

One may read the EC50 as the midpoint of the concentration-response curve. A word on the melting point: it is the temperature of the solid-liquid transition.

The first data set deals with HT-29 human colorectal carcinoma cells. The data set can be described thus: Cell growth inhibition assay, resazurin (Table 3.2). It is filed as cell-based. The conditions noted are these: HT-29, read-out: EC50 (M) Mean. How it is done:
The cytotoxic effects of various derivatives of dehydrophenylahistin against HT-29 human colorectal carcinoma cells were determined.
HT-29 cells (ATCC; HTB-38) were maintained in ATCC recommended culture media and cultured in an incubator at 37° C. in 5% CO2 and 95% humidified air.
For cell growth inhibition assays, HT-29 cells were seeded at 5×10^3 cells/well in 90 μl complete media into a Corning 3904 black-walled, clear-bottom tissue culture plates and the plates were incubated overnight to allow cells to establish and enter log phase growth. 20 mM stock solutions of compounds were prepared in 100% DMSO and stored at −80° C. 10× concentrated serial dilutions of the compounds were prepared in culture medium for final concentrations ranging from 20 μM to […]. Ten μl volumes of the 10× serial dilutions were added to the test wells in triplicate and the plates returned to the incubator for 48 hours. The final concentration of DMSO was 0.25% in all samples.
Following 48 hours of drug exposure, 10 μl of 0.2 mg/ml resazurin (obtained from Sigma-Aldrich Chemical Co.) in Mg^2+, Ca^2+ free phosphate buffered saline was added to each well and the plates were returned to the incubator for 3-4 hours. […] Resazurin dye in medium without cells was used to determine the background, which was subtracted from the data for all experimental wells.
Background: Alamar Blue is a resazurin reagent that responds to reducing activity.
`CC(C)(C)c1ocnc1/C=c1\[nH]c(=O)/c(=C/c2cc(F)cc3c2OCOC3)[nH]c1=O` [Compound 2511, tBu-oxadelta-PLH-7-fluoro-2,4-benzodioxine]: the EC50 is 2.39e-08 M. In the case of `CC(C)(C)c1ocnc1/C=c1\[nH]c(=O)/c(=C/c2cc3ccccc3s2)[nH]c1=O` [Compound 2510, tBu-oxadelta-PLH-2-benzothiophen], the EC50 is greater than 2e-05 M. For `CC(C)(C)c1ocnc1/C=c1\[nH]c(=O)/c(=C/c2ccnc3ccccc23)[nH]c1=O` [Compound 2500, tBu-oxadelta-PLH-4-quinoline], the half-maximal effective concentration (EC50) is 3.99e-07 M. Consider `Cc1ccccc1/C=c1\[nH]c(=O)/c(=C/c2ncoc2C(C)(C)C)[nH]c1=O` [Compound 2472, tBu-Oxadelta-PLH-o-Me], for which the EC50 was 5.46e-08 M. As to `CC(C)(C)c1ocnc1/C=c1\[nH]c(=O)/c(=C/c2cccc(Cl)c2Cl)[nH]c1=O` [Compound 2468, tBu-Oxadelta-PLH-2,3-diCl], the EC50 is 7.92e-08 M. Take `CC(C)(C)c1ocnc1/C=c1\[nH]c(=O)/c(=C/c2cccc(C(F)(F)F)c2)[nH]c1=O` [Compound 2488, tBu-Oxadelta-PLH-m-CF3]: the concentration giving a half-maximal response (EC50) was determined as 2.49e-07 M. On to `CC(C)(C)c1ocnc1/C=c1\[nH]c(=O)/c(=C/c2cccc3ccccc23)[nH]c1=O` [Compound 2464, tBu-Oxadelta-PLH-1-naphth], for which the EC50 is 5.37e-08 M.

In the case of `CC(C)(C)c1ocnc1/C=c1\[nH]c(=O)/c(=C/c2cc3ccccc3n2S(=O)(=O)c2ccccc2)[nH]c1=O` [Compound 2508, tBu-oxadelta-PLH-1-(Ph-sulfo)-2-indole], the EC50 was greater than 6.32e-06 M. On to `CC(C)(C)c1ocnc1/C=c1\[nH]c(=O)/c(=C/c2ccc(Br)o2)[nH]c1=O` [Compound 2483, tBu-Oxadelta-PLH-5-Br-2-furyl], for which the EC50 amounted to 2.48e-07 M.

Still in this data set, the particulars now being: Table 3.2, HT-29 cells, read-out: EC50 (M) Mean.
`COc1cc(/C=c2\[nH]c(=O)/c(=C/c3ncoc3C(C)(C)C)[nH]c2=O)cc(OC)c1` [Compound 2469, tBu-Oxadelta-PLH-3,5-diOMe]: the concentration giving a half-maximal response (EC50) is 8.63e-08 M. On to `CC(C)(C)c1ocnc1/C=c1\[nH]c(=O)/c(=C/c2cccc(OC(F)(F)F)c2)[nH]c1=O` [Compound 2477, tBu-Oxadelta-PLH-m-OCF3], for which the EC50 was 4.86e-08 M. For the compound `COc1ccc2ccccc2c1/C=c1\[nH]c(=O)/c(=C/c2ncoc2C(C)(C)C)[nH]c1=O` [Compound 2498, tBu-oxadelta-PLH-2-OMe-1-naphth], the EC50 worked out at 1.67e-06 M. Same read-out and setting: with `CC(C)(C)c1ocnc1/C=c1\[nH]c(=O)/c(=C/c2c3ccccc3cc3ccccc23)[nH]c1=O` [Compound 2499, tBu-oxadelta-PLH-9-anth] the figure was greater than 6.32e-06 M; with `CCOc1ccc2ccccc2c1/C=c1\[nH]c(=O)/c(=C/c2ncoc2C(C)(C)C)[nH]c1=O` [Compound 2497, tBu-oxadelta-PLH-2-OEt-1-naphth], 5.23e-06 M; with `CCOc1cccc(/C=c2\[nH]c(=O)/c(=C/c3ncoc3C(C)(C)C)[nH]c2=O)c1` [Compound 2471, tBu-Oxadelta-PLH-m-OEt], 1.01e-07 M.

For the compound `Cc1ccsc1/C=c1\[nH]c(=O)/c(=C/c2ncoc2C(C)(C)C)[nH]c1=O` [Compound 2480, tBu-Oxadelta-PLH-3-Me-2-thienyl], the EC50 was 1.61e-07 M. Consider `CC(C)(C)c1[nH]cnc1/C=c1\[nH]c(=O)/c(=C/c2cc(Cl)ccc2N)[nH]c1=O` [Compound 2461, tBu-delta-PLH-5-Cl-2-NH2], for which the EC50 was 2.95e-07 M. Take `CC(C)(C)c1ocnc1/C=c1\[nH]c(=O)/c(=C\c2ccccc2)[nH]c1=O` [Compound 2489, (E)-tBu-delta-PLH]: the concentration giving a half-maximal response (EC50) was 1.16e-07 M. Still for that read-out and setting: with `COc1ccccc1/C=c1\[nH]c(=O)/c(=C/c2ncoc2C(C)(C)C)[nH]c1=O` [Compound 2485, tBu-Oxadelta-PLH-2-OMe] the figure was 2.18e-07 M; with `CC(C)(C)c1ocnc1/C=c1\[nH]c(=O)/c(=C/c2cc(Cl)cc(Cl)c2)[nH]c1=O` [Compound 2470, tBu-Oxadelta-PLH-3,5-diCl], 2.78e-07 M.

System in another data set: not given
Experiment: not given
Conditions: not given
On to `CC(C)(C)c1ocnc1/C=c1\[nH]c(=O)/c(=C/c2cc(Cl)cc(Cl)c2)[nH]c1=O` [KPU-209, 3-{(Z)-1-[5-(tert-Butyl)-1H-4-oxazolyl]methylidene}-6-[(Z)-1-(3,5-dichlorophenyl)methlidene]-2,5-piperazinedione], for which the melting point lay within 202 to 204 °C. For `CC(C)(C)c1ocnc1/C=c1\[nH]c(=O)/c(=C/c2cccc(Cl)c2)[nH]c1=O`, the melting point lay within 171 to 173 °C. In the case of `CC(C)(C)c1ocnc1/C=c1\[nH]c(=O)/c(=C/c2ccccc2Cl)[nH]c1=O` [KPU-204, 3-{(Z)-1-[5-(tert-Butyl)-1H-4-oxazolyl]methylidene}-6-[(Z)-1-(2-chlorophenyl)methlidene]-2,5-piperazinedione], the melting point is 166 to 168 °C. Compound `Cc1oc(-c2ccccc2)cc1/C=c1\[nH]c(=O)/c(=C/c2ncoc2C(C)(C)C)[nH]c1=O` came in with a melting point of 218 to 220 °C.

Regarding `CC(C)(C)c1ocnc1/C=c1\[nH]c(=O)/c(=C/c2cccc([N+](=O)[O-])c2)[nH]c1=O`, the melting point is 225 to 227 °C. On to `CC(C)(C)c1ocnc1/C=c1\[nH]c(=O)/c(=C/c2ccccn2)[nH]c1=O`, for which the melting point was in the range of 230 to 232 °C. `CC(C)(C)c1ocnc1/C=c1\[nH]c(=O)/c(=C/c2cc(F)cc(F)c2F)[nH]c1=O` [KPU-235, 3-{(Z)-1-[5-(tert-Butyl)-1H-4-oxazolyl]methylidene}-6-[(Z)-1-(2,3,5-trifluorophenyl)methylidene]-2,5-piperazinedione] showed a melting point of 185 to 187 °C. In turn, `CC(C)(C)c1ocnc1/C=c1\[nH]c(=O)/c(=C/c2c3ccccc3cc3ccccc23)[nH]c1=O` [KPU-231, 3-{(Z)-1-[5-(tert-Butyl)-1H-4-oxazolyl]methylidene}-6-[(Z)-1-(9-anthryl)methlidene]-2,5-piperazinedione] came in with a melting point of 274 to 276 °C. The compound `CC(C)(C)c1ocnc1/C=c1\[nH]c(=O)/c(=C/c2cccc(C(=O)c3ccccc3)c2)[nH]c1=O` had a melting point of 151 to 153 °C.

For the compound `CC(C)(C)c1ocnc1/C=c1\[nH]c(=O)/c(=C/c2ccsc2)[nH]c1=O` [KPU-226, 3-{(Z)-1-[5-(tert-Butyl)-1H-4-oxazolyl]methylidene}-6-[(Z)-1-(3-thienyl)methlidene]-2,5-piperazinedione], the melting point was 155 to 157 °C.

For `CC(C)(C)c1ocnc1/C=c1\[nH]c(=O)/c(=C/c2cccc(F)c2)[nH]c1=O` [KPU-202, 3-{(Z)-1-[5-(tert-Butyl)-1H-4-oxazolyl]methylidene}-6-[(Z)-1-(3-fluorophenyl)methylidene]-2,5-piperazinedione], the melting point fell in the range of 143 to 145 °C. Compound `COc1ccccc1/C=c1\[nH]c(=O)/c(=C/c2ncoc2C(C)(C)C)[nH]c1=O` [KPU-224, 3-{(Z)-1-[5-(tert-Butyl)-1H-4-oxazolyl]methylidene}-6-[(Z)-1-(2-methoxyphenyl)methlidene]-2,5-piperazinedione] came in with a melting point of 151 to 153 °C.

For the compound `CC(C)(C)c1ocnc1/C=c1\[nH]c(=O)/c(=C/c2cccc(Oc3ccccc3)c2)[nH]c1=O`, the melting point was 171 to 173 °C.

Regarding `CC(C)(C)c1ocnc1/C=c1\[nH]c(=O)/c(=C/c2ccc(Cl)o2)[nH]c1=O`, the melting point lay in the range of 214 to 216 °C. `CC(C)(C)c1ocnc1/C=c1\[nH]c(=O)/c(=C/c2cccc(Cl)c2Cl)[nH]c1=O`: the melting point was in the range of 198 to 200 °C. Same read-out and setting: next, `COc1cc(/C=c2\[nH]c(=O)/c(=C/c3ncoc3C(C)(C)C)[nH]c2=O)cc(OC)c1` [KPU-208, 3-{(Z)-1-[5-(tert-Butyl)-1H-4-oxazolyl]methylidene}-6-[(Z)-1-(3,5-dimethoxyphenyl)methlidene]-2,5-piperazinedione]: 171 to 173 °C. `CC(C)(C)c1ocnc1/C=c1\[nH]c(=O)/c(=C/c2ccc(Br)o2)[nH]c1=O` gave a melting point of 184 to 186 °C.

`Cc1ccccc1/C=c1\[nH]c(=O)/c(=C/c2ncoc2C(C)(C)C)[nH]c1=O`: the melting point is 177 to 179 °C.

`CC(C)(C)c1ocnc1/C=c1\[nH]c(=O)/c(=C/c2c(F)c(F)cc(F)c2F)[nH]c1=O` [KPU-236, 3-{(Z)-1-[5-(tert-Butyl)-1H-4-oxazolyl]methylidene}-6-[(Z)-1-(2,3,5,6-tetrafluorophenyl)methlidene]-2,5-piperazinedione] registered a melting point of 194 to 196 °C. Still for that read-out and setting: with `CC(C)(C)c1ocnc1/C=c1\[nH]c(=O)/c(=C/c2ccnc3ccccc23)[nH]c1=O` the figure was 106 to 108 °C; with `CC(C)(C)c1ocnc1/C=c1\[nH]c(=O)/c(=C/c2ccccc2[N+](=O)[O-])[nH]c1=O` [KPU-215, 3-{(Z)-1-[5-(tert-Butyl)-1H-4-oxazolyl]methylidene}-6-[(Z)-1-(2-nitrophenyl)methlidene]-2,5-piperazinedione], 149 to 151 °C; with `CC(C)(C)c1ocnc1/C=c1\[nH]c(=O)/c(=C/c2cc(F)cc3c2OCOC3)[nH]c1=O`, 189 to 191 °C. Still for that read-out and setting: next, `CC(C)(C)c1ocnc1/C=c1\[nH]c(=O)/c(=C/c2cccc(OC(F)(F)F)c2)[nH]c1=O` [KPU-216, 3-{(Z)-1-[5-(tert-Butyl)-1H-4-oxazolyl]methylidene}-6-[(Z)-1-(3-trifluoromethoxyphenyl)methlidene]-2,5-piperazinedione]: 187 to 189 °C.

Regarding `Cc1cccc(/C=c2\[nH]c(=O)/c(=C/c3ncoc3C(C)(C)C)[nH]c2=O)c1C`, the melting point lay in the range of 167 to 169 °C.
